Experimental data: US8288424B2, “Substituted tetrahydroimidazopyridine compounds and the use thereof in the treatment of pain and other conditions” (Gruenenthal GmbH, priority 2008, dated 2012)

molecular target: T1, KCNQ2/3 channels (Homo sapiens, UniProt O43525+O43526); assay: Fluorescence assay using a voltage-sensitive dye; type: cell-based; conditions: 10 μmol test substance; CHO-K1 cells expressing KCNQ2/3 channels; agonistic activity; read-out: % Stimulation [10 μmol] Average
T1 construct: expressed in transfected cells; host or cells: CHO-K1
Procedure: Fluorescence Assay Using a Voltage-Sensitive Dye
Human CHO-K1 cells expressing KCNQ2/3 channels are cultivated adherently at 37° C., 5% CO2 and 95% humidity in cell culture bottles (e.g. 80 cm^2 TC flasks, Nunc) with MEM Alpha Medium (1×, liquid, Invitrogen, #22571), 10% foetal calf serum (FCS) (Invitrogen, #10270-106, heat-inactivated) and the necessary selection antibiotics. Before being spread out for the measurements, the cells are washed with a 1×DPBS buffer without Ca^2+/Mg^2+ (e.g. Invitrogen, #14190-094) and detached from the bottom of the culture vessel by means of Accutase (PAA Laboratories, #L11-007) (incubation with Accutase for 15 min at 37° C.). The cell count then present is determined using a CASY™ cell counter (TCC model, Schärfe System) in order subsequently to apply 20,000 cells/well/100 μl of the described nutrient medium to 96-well measuring plates of the Corning™ CellBIND™ type (flat clear-bottom black polystyrene microplates, #3340). Incubation is then carried out for one hour at room temperature, without gassing or adjusting the humidity, followed by incubation for 24 hours at 37° C., 5% CO2 and 95% humidity.
The voltage-sensitive fluorescent dye from the Membrane Potential Assay Kit (Red bulk format part R8123 for FLIPR, Molecular Devices™) is prepared by dissolving the contents of a vessel of Membrane Potential Assay Kit Red Component A in 200 ml of extracellular buffer (ES buffer, 120 mM NaCl, 1 mM KCl, 10 mM HEPES, 2 mM CaCl2, 2 mM MgCl2, 10 mM glucose; pH 7.4). After removal of the nutrient medium, the cells are washed with 200 μl of ES buffer, then covered with a layer of 100 μl of the dye solution prepared above and incubated for 45 min at room temperature with exclusion of light.
The fluorescence measurements are carried out with a BMG Labtech FLUOstar™ or BMG Labtech POLARstar™ instrument (525 nm excitation, 560 nm emission, bottom-read mode). After incubation of the dye, 50 μl of the substances to be tested in the desired concentrations, or 50 μl of ES buffer for control purposes, are introduced into separate cavities of the measuring plate and incubated for 30 min at room temperature whilst being shielded from light. The fluorescence intensity of the dye is then measured for 5 min and the fluorescence value F1 of each well is thus determined at a given, constant time. 15 μl of a […] KCl solution ([…]) are then added to each well. The change in fluorescence is subsequently measured until all relevant measured values have been obtained (mainly 5-30 min). At a given time after KCl application, a fluorescence value F2 is determined, in this case at the time of the fluorescence peak.
For calculation, the fluorescence intensity F2 is compared with the fluorescence intensity F1, and the agonistic activity of the target compound on the potassium channel is determined therefrom. F2 and F1 are calculated as follows:
[formula] In order to determine whether a substance has an agonistic activity,
[formula] for example, can be compared with
[formula] of control cells.
[formula] is determined by adding to the reaction batch only the buffer solution instead of the substance to be tested, determining the value F1K of the fluorescence intensity, adding the potassium ions as described above and measuring a value F2K of the fluorescence intensity. Then F2K and F1K are calculated as follows:
[formula] A substance has an agonistic activity on the potassium channel when
[formula] is greater than
[formula] Independently of the comparison of
[formula] it is also possible to conclude that a target compound has an agonistic activity if an increase in
[formula] is to be observed as the dosage of the target compound increases. Calculations of EC50 and IC50 values are carried out with the aid of Prism 4 software (GraphPad Software™).

| SMILES | activation at 10 µM [%] |
| --- | --- |
| O=C(c1cn2c(n1)CCC(c1ccccc1)C2)N(CCc1ccccc1)Cc1ccccc1 (centres unmarked) [Compound 2, N-Benzyl-N-phenethyl-6-phenyl-5,6,7,8-tetrahydroimidazo[1,2-a]pyridine-2-carboxamide] | 20 |
| CC1(C)CC2CC(C)(CN2C(=O)c2cn3c(n2)CCC(c2ccccc2)C3)C1 (centres unmarked) [Compound 3, (6-Phenyl-5,6,7,8-tetrahydroimidazo[1,2-a]pyridin-2-yl)(1,3,3-trimethyl-6-azabicyclo[3.2.1]octan-6-yl)methanone] | 16.7 |
| CC1(C)CC2CC(C)(CN2C(=O)c2cn3c(n2)CCC(c2cccc(F)c2)C3)C1 (centres unmarked) [Compound 4, (6-(3-Fluorophenyl)-5,6,7,8-tetrahydroimidazo[1,2-a]pyridin-2-yl)(1,3,3-trimethyl-6-azabicyclo[3.2.1]octan-6-yl)methanone] | 20.7 |
| COc1c(C)cc(C2CCc3nc(C(=O)NCc4ccccc4)cn3C2)cc1C (centres unmarked) [Compound 5, N-Benzyl-6-(4-methoxy-3,5-dimethylphenyl)-5,6,7,8-tetrahydroimidazo[1,2-a]pyridine-2-carboxamide] | 15.5 |
| COc1ccc(F)cc1C1CCc2nc(C(=O)N3CCN(c4cccc(C(F)(F)F)c4)CC3)cn2C1 (centres unmarked) [Compound 7, (6-(5-Fluoro-2-methoxyphenyl)-5,6,7,8-tetrahydroimidazo[1,2-a]pyridin-2-yl)(4-(3-(trifluoromethyl)phenyl)piperazin-1-yl)methanone] | 30 |
| COc1ccc(F)cc1C1CCc2nc(C(=O)N3CCC(Cc4ccccc4)CC3)cn2C1 (centres unmarked) [Compound 8, (4-Benzylpiperidin-1-yl)(6-(5-fluoro-2-methoxyphenyl)-5,6,7,8-tetrahydroimidazo[1,2-a]pyridin-2-yl)methanone] | 29.1 |
| COc1ccccc1N1CCN(C(=O)c2cn3c(n2)CCC(c2cc(C)c(OC)c(C)c2)C3)CC1 (centres unmarked) [Compound 10, (6-(4-Methoxy-3,5-dimethylphenyl)-5,6,7,8-tetrahydroimidazo[1,2-a]pyridin-2-yl)(4-(2-methoxyphenyl)piperazin-1-yl)methanone] | 15.7 |
| COc1ccc(OC)c(C2CCc3nc(C(=O)N4CC5(C)CC4CC(C)(C)C5)cn3C2)c1 (centres unmarked) [Compound 12, (6-(2,5-Dimethoxyphenyl)-5,6,7,8-tetrahydroimidazo[1,2-a]pyridin-2-yl)(1,3,3-trimethyl-6-azabicyclo[3.2.1]octan-6-yl)methanone] | 51.8 |
| Cc1cc(C2CCc3nc(C(=O)NC(C)c4ccccc4)cn3C2)ccc1F (centres unmarked) [Compound 14, 6-(4-Fluoro-3-methylphenyl)-N-(1-phenylethyl)-5,6,7,8-tetrahydroimidazo[1,2-a]pyridine-2-carboxamide] | 24.7 |
| CCCCCNC(=O)c1cn2c(n1)CCC(c1cc(C)c(OC)c(C)c1)C2 (centres unmarked) [Compound 15, 6-(4-Methoxy-3,5-dimethylphenyl)-N-pentyl-5,6,7,8-tetrahydroimidazo[1,2-a]pyridine-2-carboxamide] | 16.8 |
| COc1c(C)cc(C2CCc3nc(C(=O)NCc4cccc(C(F)(F)F)c4)cn3C2)cc1C (centres unmarked) [Compound 17, 6-(4-Methoxy-3,5-dimethylphenyl)-N-(3-(trifluoromethyl)benzyl)-5,6,7,8-tetrahydroimidazo[1,2-a]pyridine-2-carboxamide] | 18.5 |

Second part, the molecule after the results:

| activation at 10 µM [%] | SMILES |
| --- | --- |
| 16.2 | O=C(c1cn2c(n1)CCC(c1ccccc1)C2)N1CCC(Cc2ccccc2)CC1 (centres unmarked) [Compound 1, (4-Benzylpiperidin-1-yl)(6-phenyl-5,6,7,8-tetrahydroimidazo[1,2-a]pyridin-2-yl)methanone] |
| 38.5 | CCc1ccc(C2CCc3nc(C(=O)N4CCC(Cc5ccccc5)CC4)cn3C2)cc1 (centres unmarked) [Compound 11, (4-Benzylpiperidin-1-yl)(6-(4-ethylphenyl)-5,6,7,8-tetrahydroimidazo[1,2-a]pyridin-2-yl)methanone] |
| 18 | Cc1cc(C2CCc3nc(C(=O)N4CCN(c5ccccc5F)CC4)cn3C2)ccc1F (centres unmarked) [Compound 13, (6-(4-Fluoro-3-methylphenyl)-5,6,7,8-tetrahydroimidazo[1,2-a]pyridin-2-yl)(4-(2-fluorophenyl)piperazin-1-yl)methanone] |
| 18.6 | CCC(C)NC(=O)c1cn2c(n1)CCC(c1ccc(Oc3ccccc3)cc1)C2 (centres unmarked) [Compound 18, N-sec-Butyl-6-(4-phenoxyphenyl)-5,6,7,8-tetrahydroimidazo[1,2-a]pyridine-2-carboxamide] |
| 18 | CCOC(=O)C1CCCN(C(=O)c2cn3c(n2)CCC(c2ccc(Oc4ccccc4)cc2)C3)C1 (centres unmarked) [Compound 22, Ethyl 1-(6-(4-phenoxyphenyl)-5,6,7,8-tetrahydroimidazo[1,2-a]pyridine-2-carbonyl)piperidine-3-carboxylate] |
| 17.4 | O=C(NC1CC1)c1cn2c(n1)CCC(c1ccc(Oc3ccccc3)cc1)C2 (centres unmarked) [Compound 26, N-Cyclopropyl-6-(4-phenoxyphenyl)-5,6,7,8-tetrahydroimidazo[1,2-a]pyridine-2-carboxamide] |

same assay, conditions: CHO-K1 cells expressing KCNQ2/3 channels; agonistic activity

| SMILES | EC50 [µM] |
| --- | --- |
| COc1c(C)cc(C2CCc3nc(C(=O)N4CCN(c5ccccc5F)CC4)cn3C2)cc1C (centres unmarked) [Compound 6, (4-(2-Fluorophenyl)piperazin-1-yl)(6-(4-methoxy-3,5-dimethylphenyl)-5,6,7,8-tetrahydroimidazo[1,2-a]pyridin-2-yl)methanone] | 7.4 |
| COc1ccc(F)cc1C1CCc2nc(C(=O)N3CC4(C)CC3CC(C)(C)C4)cn2C1 (centres unmarked) [Compound 9, (6-(5-Fluoro-2-methoxyphenyl)-5,6,7,8-tetrahydroimidazo[1,2-a]pyridin-2-yl)(1,3,3-trimethyl-6-azabicyclo[3.2.1]octan-6-yl)methanone] | 11.9 |
| CCCCCCNC(=O)c1cn2c(n1)CCC(c1cc(C)c(OC)c(C)c1)C2 (centres unmarked) [Compound 16, N-Hexyl-6-(4-methoxy-3,5-dimethylphenyl)-5,6,7,8-tetrahydroimidazo[1,2-a]pyridine-2-carboxamide] | 3.95 |

Other lines, results leading:

| EC50 [µM] | SMILES |
| --- | --- |
| 6.21 | CCCCNC(=O)c1cn2c(n1)CCC(c1ccc(Oc3ccccc3)cc1)C2 (centres unmarked) [Compound 19, N-Butyl-6-(4-phenoxyphenyl)-5,6,7,8-tetrahydroimidazo[1,2-a]pyridine-2-carboxamide] |
| 11.6 | CCOC(=O)C1CCN(C(=O)c2cn3c(n2)CCC(c2ccc(Oc4ccccc4)cc2)C3)CC1 (centres unmarked) [Compound 20, Ethyl 1-(6-(4-phenoxyphenyl)-5,6,7,8-tetrahydroimidazo[1,2-a]pyridine-2-carbonyl)piperidine-4-carboxylate] |
| 8.4 | CC1CCN(C(=O)c2cn3c(n2)CCC(c2ccc(Oc4ccccc4)cc2)C3)CC1 (centres unmarked) [Compound 21, (4-Methylpiperidin-1-yl)(6-(4-phenoxyphenyl)-5,6,7,8-tetrahydroimidazo[1,2-a]pyridin-2-yl)methanone] |
| 5.81 | CC(=O)N1CCN(C(=O)c2cn3c(n2)CCC(c2ccc(Oc4ccccc4)cc2)C3)CC1 (centres unmarked) [Compound 23, 1-(4-(6-(4-Phenoxyphenyl)-5,6,7,8-tetrahydroimidazo[1,2-a]pyridine-2-carbonyl)piperazin-1-yl)ethanone] |
| 6.14 | O=C(NCc1cccnc1)c1cn2c(n1)CCC(c1ccc(Oc3ccccc3)cc1)C2 (centres unmarked) [Compound 24, 6-(4-Phenoxyphenyl)-N-(pyridin-3-ylmethyl)-5,6,7,8-tetrahydroimidazo[1,2-a]pyridine-2-carboxamide] |
| 2.33 | O=C(c1cn2c(n1)CCC(c1ccc(Oc3ccccc3)cc1)C2)N1CCCC1 (centres unmarked) [Compound 25, (6-(4-Phenoxyphenyl)-5,6,7,8-tetrahydroimidazo[1,2-a]pyridin-2-yl)(pyrrolidin-1-yl)methanone] |
